Patent publication US20250082766A1, “TREATMENT OF BRAIN TUMORS BY TARGETING THE CHOLESTEROL PATHWAY IN ASTROCYES” (Ramot at Tel-Aviv University Ltd., priority 2022, published 2025)
Entries after “also recorded” stand apart in the source; their conditions may differ.

Columns and labels:
primary astrocytes = test: Cell viability assay (Annexin V/DAPI FACS) of primary astrocytes; format: cell-based, mouse; design: dose or concentration left out as unconfirmed; conditions: lovastatin, 3 day treatment; FIGS. 11G-H
Excerpt: FIGS. 11A-K illustrate that astrocyte-derived cholesterol supports glioma survival. (FIG. 11A) Representative immunofluorescence images of cholesterol accumulation (Filipin III, white) in the GBM tumor (tdTomato^+ GL261 cells, red), Tumor margins are indicated in yellow (n=3 biologically independent samples). Scale bars, 400 μm (right), 150 μm (left). (FIGS. 11B-E) Real-time changes in the ECAR (FIGS. 11B-C) and OCR (FIGS. 11D-E) of CT-2A glioma cells, cultured in media supplemented with full serum (FCS) or lipoprotein-deprived serum (LPDS) for 18 hours and measured using Seahorse. […] Glycolysis, glycolytic capacity and glycolytic reserve are extracted from ECAR reading, and basal respiration, ATP production, Maximal respiration, and spare respiratory capacity were determined based on OCR. […] (FIGS. 11I-J) Representative immunoblot and quantification analyses comparing LDLR protein levels in with CT-2A and GL261 cells cluttered for 2 days in FCS or LPDS supplemented media. […] P values were determined by two-sided Student's t-tests (FIGS. 11B-E and 11I-K) or by one-way ANOVA, followed by Fisher's LSD post-hoc analysis (FIGS. 11G-H). *P<0.05, **P<0.01, ***P<0.001.
GL261, CT-2A, or astrocytes were seeded at a density of 1.5×10^5 cells per well in a 6-well plate. […] Microglial cell death was determined by LDH Assay (Sigma-Aldrich, #4744934001) according to the manufacturer's instructions. […]

[1] = test system: GL261 and CT-2A glioma cells; test: Cell viability assay (Annexin V/DAPI FACS) of glioma cells; format: cell-based, mouse; design: glioma viability: dose or concentration left out as unconfirmed; conditions: lovastatin, 3 day treatment; CT-2A and GL261; FIGS. 11G-H
Procedure: FIGS. 5A-N illustrate that astrocyte-derived cholesterol supports glioma survival. (FIGS. 5A-D) Real-time changes in the ECAR (FIGS. 5A-B) and oxygen consumption rate (OCR) (FIGS. 5C-D) of GL261 glioma cells, cultured in media supplemented with full serum (FCS, fetal calf serum) or lipoprotein-deprived serum (LPDS, Lipoprotein-deficient serum) for 18 hours and measured using Seahorse. Oligo, oligomycin; FCCP, carbonyl cyanide4-(trifluoromethoxy) phenylhydrazone; R/A, rotenone plus antimycin A; 2-DG, 2-deoxy-d-glucose. Glycolysis, glycolytic capacity and glycolytic reserve were extracted from the ECAR reading, and basal respiration, adenosine triphosphate (ATP) production, Maximal respiration, and spare respiratory capacity were determined based on OCR. Data are representative of two independent experiments (n=6 technical replicates per experiment). (FIG. 5E) Percentage of cell death of GL261 and CT-2A glioma cells, or primary astrocytes, cultured in FCS or LPDS for 5 days; as determined by Annexin-V assay (n=5 independent experiments). […] Representative flow cytometry plots of Annexin-V/DAPI staining from each group are shown in FIG. 5F and quantification analyses of cholesterol rescue are in FIG. 5G (n=5 biologically independent experiments). (FIGS. 5H-K) Representative images and quantification of LDLR expression (Immunoblot, FIGS. 5H-I) and cell death via FACS analysis of Annexin V/DAPI staining (FIGS. 5J-K) in response to endogenous LXR agonists (24-OHC) or Mock (DMSO) treatment in GL261 and CT-2A cells (n=3 biologically independent experiments). […] (FIGS. 5L-M) Representative flow cytometry plots of murine GL261 and CT-2A glioma cells co-cultured for 5 days with primary mouse astrocytes are shown in FIG. 5L and quantification analyses in FIG. 5M (n=4 biologically independent experiments). (FIG. 5N) quantification analyses of human U87EGFRvIII (U87) glioma cells co-cultured with human primary astrocytes for 5 days (n=3 biologically independent experiments). […]

[2] = target: cholesterol transporter ABCA1 (Homo sapiens, UniProt O95477); conditions: cited from earlier work
Chain of cholesterol transporter ABCA1 (O95477 whole entry): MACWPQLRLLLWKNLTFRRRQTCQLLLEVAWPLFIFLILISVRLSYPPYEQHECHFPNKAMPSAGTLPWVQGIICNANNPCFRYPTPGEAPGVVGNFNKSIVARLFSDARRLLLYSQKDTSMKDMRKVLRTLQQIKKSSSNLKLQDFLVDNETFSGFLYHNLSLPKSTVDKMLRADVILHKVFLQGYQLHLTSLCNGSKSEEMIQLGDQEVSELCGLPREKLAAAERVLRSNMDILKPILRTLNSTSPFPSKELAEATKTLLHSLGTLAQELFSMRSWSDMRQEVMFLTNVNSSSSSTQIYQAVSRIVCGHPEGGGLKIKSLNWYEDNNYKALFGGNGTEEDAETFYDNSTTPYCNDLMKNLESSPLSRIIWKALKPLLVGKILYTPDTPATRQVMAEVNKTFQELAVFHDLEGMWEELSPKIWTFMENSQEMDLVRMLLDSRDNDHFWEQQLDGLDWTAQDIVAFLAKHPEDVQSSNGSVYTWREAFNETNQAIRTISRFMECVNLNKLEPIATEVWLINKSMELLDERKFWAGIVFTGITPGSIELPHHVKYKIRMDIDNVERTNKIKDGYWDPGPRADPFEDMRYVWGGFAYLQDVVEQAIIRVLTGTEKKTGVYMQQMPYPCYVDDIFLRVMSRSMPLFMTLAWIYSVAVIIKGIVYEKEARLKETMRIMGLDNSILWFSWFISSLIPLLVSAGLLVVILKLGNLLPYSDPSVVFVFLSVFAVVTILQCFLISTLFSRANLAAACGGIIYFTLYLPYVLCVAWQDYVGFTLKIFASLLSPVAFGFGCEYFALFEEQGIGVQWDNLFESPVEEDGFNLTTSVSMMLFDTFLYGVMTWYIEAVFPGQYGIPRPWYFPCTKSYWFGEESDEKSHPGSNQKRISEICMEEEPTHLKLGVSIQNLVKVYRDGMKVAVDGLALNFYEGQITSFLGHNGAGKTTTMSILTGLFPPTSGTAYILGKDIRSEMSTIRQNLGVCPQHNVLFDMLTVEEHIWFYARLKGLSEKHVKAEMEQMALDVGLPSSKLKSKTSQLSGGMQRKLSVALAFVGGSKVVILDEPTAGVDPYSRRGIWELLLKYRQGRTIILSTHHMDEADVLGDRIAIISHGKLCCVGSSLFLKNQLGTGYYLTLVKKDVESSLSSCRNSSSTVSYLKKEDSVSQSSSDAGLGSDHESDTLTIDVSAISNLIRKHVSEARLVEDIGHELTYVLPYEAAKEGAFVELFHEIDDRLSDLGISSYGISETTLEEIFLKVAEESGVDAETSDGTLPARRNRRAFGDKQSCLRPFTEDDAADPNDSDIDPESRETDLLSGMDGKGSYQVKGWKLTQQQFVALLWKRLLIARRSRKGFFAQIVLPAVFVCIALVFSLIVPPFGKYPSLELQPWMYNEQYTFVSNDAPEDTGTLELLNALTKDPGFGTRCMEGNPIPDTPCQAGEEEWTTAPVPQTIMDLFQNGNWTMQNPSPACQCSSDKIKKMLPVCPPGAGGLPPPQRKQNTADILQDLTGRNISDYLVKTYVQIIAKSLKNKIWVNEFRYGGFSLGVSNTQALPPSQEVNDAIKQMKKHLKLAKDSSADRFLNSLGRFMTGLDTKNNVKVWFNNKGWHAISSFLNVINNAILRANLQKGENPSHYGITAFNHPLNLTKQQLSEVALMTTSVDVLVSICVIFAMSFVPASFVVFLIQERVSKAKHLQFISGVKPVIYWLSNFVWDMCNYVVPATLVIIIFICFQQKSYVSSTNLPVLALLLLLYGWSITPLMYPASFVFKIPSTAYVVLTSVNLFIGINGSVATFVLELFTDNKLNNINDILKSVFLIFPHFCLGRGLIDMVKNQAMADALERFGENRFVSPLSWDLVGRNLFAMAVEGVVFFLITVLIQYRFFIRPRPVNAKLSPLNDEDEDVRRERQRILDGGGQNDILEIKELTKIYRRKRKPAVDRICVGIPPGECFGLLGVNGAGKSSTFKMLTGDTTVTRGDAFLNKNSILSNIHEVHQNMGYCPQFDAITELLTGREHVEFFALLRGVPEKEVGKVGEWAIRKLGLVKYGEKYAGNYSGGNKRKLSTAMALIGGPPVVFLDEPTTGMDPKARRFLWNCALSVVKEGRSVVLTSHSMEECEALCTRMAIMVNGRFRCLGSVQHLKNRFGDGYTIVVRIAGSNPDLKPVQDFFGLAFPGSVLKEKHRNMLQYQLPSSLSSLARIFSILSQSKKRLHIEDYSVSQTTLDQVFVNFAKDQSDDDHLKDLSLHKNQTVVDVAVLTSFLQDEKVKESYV

GL261-Luc2 glioma (GBM) = test: GL261-Luc2 implanted mice treated with probucol, TMZ or both; format: in vivo, mouse; conditions: FIGS. 20A-C
Procedure: WT mice were IC implanted with GL261-Luc2 cells. […] (FIG. 20A) Tumor growth curve as determined by IVIS, (FIG. 20B) mice weight loss, and (FIG. 20C) Kaplan-Meier curves assess overall survival. p-value by Two-way ANOVA. Data represent Mean±SEM, 8 mice/group.
For intracranial mouse glioma, mice were anesthetized, positioned in a Stereotaxic Alignment System, and injected with 1.5×10^4 GL261 or CT-2A cells in 2 μl of DMEM. Injections were made to the right frontal lobe, approximately 2.5 mm lateral and 0.1 mm caudal from bregma at a depth of 3 mm. In-vivo bioluminescence imaging, following XenoLight D-luciferin Potassium Salt administration (150 mg/kg) i.p. administration, was determined using IVIS Spectrum system (PerkinElmer). Ganciclovir (GCV, Cymevene, Roche #SAP-10051872; 25 mg/kg), Diphtheria-toxin (DT, Sigma-Aldrich, #D0564; 1100 ng/mice), or vehicle control (PBS) were administered daily following tumor establishment (day 10), as previously described (Mayo, L., et al. Nat Med (2014) 20: 1147-1156). CD8^+ T cell depletion was performed using an anti-CD8 monoclonal antibody (53.6-7, Bioxcell) or an isotype control monoclonal antibody (2A3, Bioxcell), as previously described (Takenaka, M. C. et al. Control of tumor-associated macrophages and T cells in glioblastoma via AHR and CD39. Nat Neurosci 22, 729-740 (2019)). GBM-bearing mice were intraperitoneally injected (0.1 mg/mouse) with an anti-CD8 or an isotype control mAbs, 1 day before, and 7 days after, GCV administration. CD8 T-cell depletion was validated by FACS analysis using a Sony SH800 FACS instrument (Sony Biotechnology). Data analysis was performed using FlowJo v10 (TreeStar, USA). The following reagents were used for analysis: anti-CD45 (1:100; 30-F11, Biolegend, #103106), anti-CD3□ (1:50; 145-2C11, Biolegend #100335), and anti-CD8a (1:100; 53-6.7, Biolegend, #100765).

GL261 glioma (GBM) = test: Primary GBM model: GL261 intracranially implanted mice treated with Probucol; format: in vivo, mouse; conditions: for tumor growth (IVIS): Probucol 30 mg/kg daily from day 10 (quarter of HED) vs vehicle, FIG. 16B
Procedure: (FIG. 16A) Illustration of the experimental design for primary and recurrent GBM models. (FIGS. 16B-D) WT mice were intracranially (IC) implanted with GL261 cells. Tumor-bearing mice were treated daily, starting at day 10, with Probucol (30 mg/kg) or vehicle. (FIG. 16B) Tumor growth curve as determined by IVIS, (FIG. 16C) mice weight loss, and (FIG. 16D) Kaplan-Meier curves assess overall survival. p-value by Two-way ANOVA. Data represent Mean±SEM, 8 mice/group. (FIG. 16E) Illustration of the predicted effects of probucol or glyburide in the different models/disease stages.
For intracranial mouse glioma, mice were anesthetized, positioned in a Stereotaxic Alignment System, and injected with 1.5×10^4 GL261 or CT-2A cells in 2 μl of DMEM. Injections were made to the right frontal lobe, approximately 2.5 mm lateral and 0.1 mm caudal from bregma at a depth of 3 mm. In-vivo bioluminescence imaging, following XenoLight D-luciferin Potassium Salt administration (150 mg/kg) i.p. administration, was determined using IVIS Spectrum system (PerkinElmer). Ganciclovir (GCV, Cymevene, Roche #SAP-10051872; 25 mg/kg), Diphtheria-toxin (DT, Sigma-Aldrich, #D0564; 1100 ng/mice), or vehicle control (PBS) were administered daily following tumor establishment (day 10), as previously described (Mayo, L., et al. Nat Med (2014) 20: 1147-1156). CD8^+ T cell depletion was performed using an anti-CD8 monoclonal antibody ([…], Bioxcell) or an isotype control monoclonal antibody (2A3, Bioxcell), as previously described (Takenaka, M. C. et al. Control of tumor-associated macrophages and T cells in glioblastoma via AHR and CD39. Nat Neurosci 22, 729-740 (2019)). GBM-bearing mice were intraperitoneally injected (0.1 mg/mouse) with an anti-CD8 or an isotype control mAbs, 1 day before, and 7 days after, GCV administration. CD8 T-cell depletion was validated by FACS analysis using a Sony SH800 FACS instrument (Sony Biotechnology). Data analysis was performed using FlowJo v10 (TreeStar, USA). The following reagents were used for analysis: anti-CD45 (1:100; 30-F11, Biolegend, #103106), anti-CD3[…] (1:50; 145-2C11, Biolegend #100335), and anti-CD8a (1:100; 53-6.7, Biolegend, #100765).
To investigate this hypothesis, C57Bl/6 mice are implanted with GFP^+ luciferase-expressing glioma cells (GL261 or CT-2A), using two subtype models—primary or recurrent GBM/brain tumor resection (as illustrated in FIG. 16A), and are treated daily with probucol, glyburide, or vehicle control, with or without a potent statin (e.g., simvastatin as shown in FIG. 15A). The dosage of the different drugs is optimized based on FDA guidelines for conversions from human-accepted dosages (Table 5 below).
In the primary GBM model (pGBM)—10 days after tumor implantation, the mice are treated with cholesterol-lowering drugs (FIG. 16A). In the recurrent GBM model (rGBM), 12-14 days after inoculation of the mice with the tumor cells, the visible tumor(s) are surgically removed, based on GFP expression, under a stereoscope. The mice are then allowed to recover for a week and then are treated with cholesterol-lowering drugs (FIG. 16A). Of note, tumor formation or recurrence is monitored by bioluminescence (BLI) signals from the tumor cells on in-vivo imaging system (IVIS) spectrum and quantified with Living Image software. Mice are monitored for tumor growth, peritumoral brain edema formation, and mouse survival until the experimental endpoint (extreme lethargy or body weight reduction of greater than 20%), or are euthanized seven days after treatment with the cholesterol-lowering drugs to assess tumor burden, angiogenesis, BBB stability, and immunomodulatory activity in-situ. Tumor volume is evaluated in-vivo by determining tumor BLI, and by histopathology analysis postmortem. Peritumoral brain edema is evaluated in-vivo using IVISense™ Edema (Superhance™ 680) fluorescent probe. […]

[3] = summary statement on ABCA1 inhibitors, FIGS. 16A-E

| SMILES | cell death of primary astrocytes (primary astrocytes) | glioma viability [1] | ABCA1 inhibitor potency [2] | therapeutic effect (potency) of TMZ (GL261-Luc2 glioma (GBM); probucol 30 mg/kg combined with TMZ 2.5 mg/kg, GL261-Luc2 bearing mice) | GBM pathogenicity (GL261-Luc2 glioma (GBM); probucol 30 mg/kg, limited course (two days before, during and two days after TMZ course), from day 10) | tumor growth (IVIS) (GL261 glioma (GBM); GL261-bearing WT mice) | tumor growth (IVIS) (GL261 glioma (GBM); GL261-bearing WT mice, listed as probucol) | weight loss associated with tumor burden (GL261 glioma (GBM); GL261-bearing WT mice, Probucol 30 mg/kg daily from day 10 vs vehicle, FIG. 16C) | survival (Kaplan-Meier) (GL261 glioma (GBM); GL261-bearing WT mice, Probucol 30 mg/kg daily from day 10 vs vehicle, FIG. 16D) | survival of subjects having GBM in-vivo (GL261 glioma (GBM); [3]) | tumor size of subjects having GBM in-vivo (GL261 glioma (GBM); [3]) | weight loss of subjects having GBM in-vivo (GL261 glioma (GBM); [3]) |
| --- | --- | --- | --- | --- | --- | --- | --- | --- | --- | --- | --- | --- |
| CC[C@H](C)C(=O)O[C@H]1C[C@@H](C)C=C2C=C[C@H](C)[C@H](CC[C@@H]3C[C@@H](O)CC(=O)O3)[C@H]21 [lovastatin, Lovastatin] | significant cell death of primary astrocytes | did not affect glioma viability |  |  |  |  |  |  |  |  |  |  |
| CC(C)(Sc1cc(C(C)(C)C)c(O)c(C(C)(C)C)c1)Sc1cc(C(C)(C)C)c(O)c(C(C)(C)C)c1 [Probucol] |  |  | strong | enhances the potency of TMZ therapeutic; also recorded: dramatically enhanced the therapeutic effect of TMZ | able to halt GBM pathogenicity | attenuates GBM progression | significantly attenuated | significantly attenuated | improved | prolonging survival | decreasing tumor size | preventing weight loss |
